# In patent US12453700B2, “Nano-particles of menaquinone-9 and methods of treatment” (Epizon, Inc., priority 2024, dated 2025):
# Test: Dissolution testing of MK-9 API and nanosuspension in Fed State Simulated Intestinal Fluid (FeSSIF)
# Format: physicochemical
# Details: for % Dissolution (Avg of n = 3): FeSSIF pH 5, 37° C., 0.01 mg/mL drug load
# Description: MK-9 (menaquinone-9, API) is suspended in an aqueous vehicle containing wetting agent sodium deoxycholate. The API concentration is 4% and the wetting agent concentration was 0.4% w/w. The API particles are milled to a particle size of 155 nm using zirconium milling beads and high shear Beadbeater mixing. The dissolution of the nanosuspension is tested at a concentration of 0.01 mg/mL, in triplicate, in pH 5 Fed State Simulated Intestinal Fluid (FeSSIF).
# 2. Fill three (3) vessels with 500 mL of FeSSIF media and heat to 37° C.
# 3. Set up the following dissolution conditions:
# 4. Vortex suspension x for approximately one minute so that it is uniform. Weigh three (3) aliquots of 0.15 g of the 4% nanosuspension into a tared syringe to give a target 100% dissolution concentration of 0.01 mg/mL. Record weight.
# 5. Add weighed suspension directly to each vessel.
# 7. After five minutes, manually pull up 3 mL from each dissolution vessel in a syringe.
# 8. Attach a 0.2 μm filter to the syringe.
# 9. Transfer 2 mL of the dissolution sample back into the vessel.
# 10. Transfer the final 1 mL of sample to an amber HPLC vial and crimp seal.
# 12. After the 60-minute time-point, mix each vessel for 5 minutes with a high shear mixer.
# 13. Repeat Step #8-11 and label this sample as ‘infinity’.
# 14. Run samples on HPLC 10 minutes HPLC method with replicate HPLC standard solutions.
# MK-9 (menaquinone-9, API) is suspended in an aqueous vehicle containing wetting agent, sodium deoxycholate. The API concentration is 4% and the wetting agent concentration was 0.4% w/w. The API particles are milled to a particle size of 155 nm by use of zirconium milling beads and high shear Beadbeater mixing. The dissolution of the nanosuspension is tested at a concentration of 0.01 mg/mL, in triplicate, in pH 5 FeSSIF. […] The nano-milling process is scaled up and the suspended nano-particles are removed from the suspension vehicle, dry and formulate into a fast dissolving tablet, and tested.
smiles,measurement,setting,value
"CC(C)=CCC/C(C)=C/CC/C(C)=C/CC/C(C)=C/CC/C(C)=C/CC/C(C)=C/CC/C(C)=C/CC/C(C)=C/CC/C(C)=C/CC1=C(C)C(=O)c2ccccc2C1=O [API, menaquinone-9]",% Dissolution (Avg of n = 3),timepoint 0 minute,0%
same,% Dissolution (Avg of n = 3),timepoint 10 minute,96%
same,% Dissolution (Avg of n = 3),"timepoint 10 minute, listed as MK-9 API",about 20%
same,% Dissolution (Avg of n = 3),timepoint 15 minute,97%
same,% Dissolution (Avg of n = 3),timepoint 30 minute,97%
same,% Dissolution (Avg of n = 3),timepoint 45 minute,98%
same,% Dissolution (Avg of n = 3),timepoint 60 minute,96%
same,% Dissolution (Avg of n = 3),timepoint Infinity (after 5 minutes high shear mixing),97%
same,% Dissolution (dissolution profile),"FeSSIF, at about 120 mins",about 20%
